Test results: PMC11579541, “In vitro, in vivo, and in silico approaches for evaluating the preclinical DMPK profiles of ammoxetine, a novel chiral serotonin and norepinephrine reuptake inhibitor” (Frontiers in Pharmacology, 2024)
≈ marks a conversion by molar mass, not a printed value.

What was measured:
MTT cytotoxicity assay = format: cell-based, canine; conditions: dog, MDCK-MDR1 cells; 0–20 μg/mL, 3 h; read-out: cellular inhibition rate
Method: (§1) MDCK-MDR1 cells at passage 17 were cultured in DMEM supplemented with 10% FBS, 1% glutamine, 100 U/mL penicillin/streptomycin, 1% NEAA, and 1 mmol/L sodium pyruvate. The cells were incubated overnight at 37°C with 5% CO2 and a relative humidity of 90%. Once the cells reached approximately 80% confluence, they were treated with a 0.25% trypsin/EDTA solution to dissociate the cells. Subsequently, the cells were seeded at a density of 5 × 10^5 cells/cm^2 in Millicell-96 well plates (Millipore, Burlington, USA). Prior to conducting the experiments, the integrity of the cell monolayer was confirmed by measuring transepithelial electrical resistance (TEER) using a Millicell ERS® meter (Millipore, Burlington, USA). A TEER value greater than 400 Ω cm^2 was required to ensure the formation and preservation of tight junctions.
(§2) The ability of ammoxetine to inhibit the growth of MDCK-MDR1 cells was evaluated using the MTT assay. Ammoxetine was diluted with transport buffer [Hank’s balanced salt solution (HBSS) containing 6.0 g HEPES, pH 7.2–7.4] from a stock solution (2 mg/mL) dissolved in HBSS to create a series of standard concentrations: 1.28, 6.4, 32, 160, 800 ng/mL and 4, 20, 100, 500 μg/mL. Prior to the assay, the cell culture medium was aspirated and replaced with different standard concentrations of ammoxetine (100 μL/well, n = 6). The cells were then incubated at 37°C for 3 h. Following the incubation, 20 μL of MTT solution (5 mg/mL) was added to each well, and the incubation was continued for 4 h. Subsequently, the solution in each well was discarded, and 150 μL of dimethyl sulfoxide was added. After vortexing for 10 min, the absorbance was measured at 570 nm using a Varioskan® Flash multimode reader (Thermo Fisher Scientific, Waltham, USA). Blank control solutions, consisting of HBSS without ammoxetine, were also applied to the cells. The absorbance values were then used to calculate the relative growth rate (RGR, %) of cells using the formula RGR = ODammoxetine/ODblank × 100%, where ODammoxetine and ODblank represent the mean absorbance values of six parallel measurements in the ammoxetine and blank control solutions, respectively ([Ji et al., 2024]). The Prism 5 software (GraphPad Software, Inc., San Diego, USA) was used to determine the 50% toxic concentration (TC50) value of ammoxetine.

MDCK-MDR1 cells = test: MTT cytotoxicity assay; format: cell-based, canine
Method: as §1, §2

[1] = PPB assay by ultrafiltration, human plasma; format: in vitro ADME, humans
Method: The PPB of ammoxetine was determined using the ultrafiltration method. Triplicate samples of rat, dog, or human plasma were spiked with ammoxetine at three final concentrations (50, 150, and 450 ng/mL). The spiked plasma samples were then incubated in a 37°C air-bath shaker for 1 h until equilibrium was reached. After incubation, 400 μL of the plasma samples were transferred to pre-saturated ultrafiltration devices. These devices were subsequently centrifuged at 13,800×g and 20°C for 20 min to separate the unbound ammoxetine. 100 μL of the test samples were taken and mixed with 100 μL of the IS, L-phencynonate (50 ng/mL), and 300 μL of methanol. Following centrifugation at 13,800×g for 10 min, the supernatants were used to determine the total and free concentrations of ammoxetine in the plasma (C t , C f ) using an LC-MS-MS method. The PPB rate (%) of ammoxetine was calculated by dividing (C t −C f ) by C t .

CYP 2C9 = CYP 2C9 (Homo sapiens, UniProt P11712); test: Phenotyping with recombinant human CYP 2C9; format: in vitro ADME; design: purchased BD (Woburn, USA); conditions: 5 μmol/L, 25 pmol/mL CYP, 1 h
Method: Ammoxetine (final concentration 5 μmol/L) was incubated with recombinant human CYP 3A4, CYP 1A2, CYP 2C9, CYP 2C19, and CYP 2D6 (final concentration 25 pmol/mL) in a 5 mmol/L K2HPO4 buffer at pH 7.4. The incubations were performed in quintuplicate. NADPH (final concentration 1 mmol/L) was added to initiate the incubation process. The mixture was then incubated at 37°C for 1 h. To stop the reaction, 200 μL of ice-cold acetonitrile/methanol (1:1, v/v) containing 500 ng/mL of L-phencynonate (IS) was added. The samples were vortexed for 2 min and centrifuged at 13,800×g and 4°C for 10 min. The supernatants obtained were analyzed using an LC-MS-MS method. To establish appropriate controls, zero-time controls and blank controls in the absence of NADPH were set up in parallel.

Chain of CYP 2C9 (P11712 whole entry): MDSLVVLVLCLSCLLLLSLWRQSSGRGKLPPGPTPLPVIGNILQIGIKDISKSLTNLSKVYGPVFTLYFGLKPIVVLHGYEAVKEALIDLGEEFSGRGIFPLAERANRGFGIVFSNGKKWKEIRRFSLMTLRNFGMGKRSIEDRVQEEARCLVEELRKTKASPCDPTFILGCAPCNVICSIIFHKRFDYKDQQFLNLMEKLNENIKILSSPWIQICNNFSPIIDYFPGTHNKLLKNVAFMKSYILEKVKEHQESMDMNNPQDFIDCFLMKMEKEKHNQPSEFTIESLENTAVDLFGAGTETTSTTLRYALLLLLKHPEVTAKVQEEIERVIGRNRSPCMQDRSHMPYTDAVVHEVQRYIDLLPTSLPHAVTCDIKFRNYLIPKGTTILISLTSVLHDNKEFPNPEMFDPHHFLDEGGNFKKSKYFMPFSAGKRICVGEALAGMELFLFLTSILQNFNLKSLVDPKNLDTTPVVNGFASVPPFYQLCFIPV

In the case of CNCC[C@H](Oc1cccc2c1OCO2)c1cccs1 [ammoxetine], the inhibition at 3 h (MTT cytotoxicity assay) is reported as < 10%, the “RGR (%)” value (MDCK-MDR1 cells; 0.16 μg/mL) is reported as 103.48±9.43% and the “RGR (%)” value (MDCK-MDR1 cells; 0.80 μg/mL) is reported as 102.55±18.09%. The “RGR (%)” value (MDCK-MDR1 cells; 4 μg/mL) was 103.59±20.82%, the “RGR (%)” value (MDCK-MDR1 cells; 20 μg/mL) was 89.16±12.89% and the “RGR (%)” value (MDCK-MDR1 cells; 100 μg/mL) was 55.53±7.87%. The “RGR (%)” value (MDCK-MDR1 cells; 500 μg/mL) was 24.49±2.36%, the “RGR (%)” value (MDCK-MDR1 cells; 1.28×e-3 μg/mL) was 113.13±22.65% and the “RGR (%)” value (MDCK-MDR1 cells; 3.20×e-2 μg/mL) was 103.57±14.18%. The “RGR (%)” value (MDCK-MDR1 cells; 6.40×e-3 μg/mL) was 114.88±14.68%, the TC50 (MDCK-MDR1 cells; 50% toxic concentration from ln concentration-RGR curve) was 79.76 ± 18.94 µg/mL (≈ 274 µM) and the fraction unbound at 1 h, 50 ng/mL ([1]; 50 ng/mL, read-out: Percentage of ammoxetine-protein binding rate (%) (converted)) was 0.415. The fraction unbound at 1 h, 150 ng/mL ([1]; 150 ng/mL, read-out: Percentage of ammoxetine-protein binding rate (%) (converted)) was 0.503, the fraction unbound at 1 h, 450 ng/mL ([1]; 450 ng/mL, read-out: Percentage of ammoxetine-protein binding rate (%) (converted)) was 0.45 and the fraction unbound at 1 h ([1]; approximate range over 50-450 ng/mL, read-out: PPB rate) was 0.4 to 0.5. The Transformation ratio% (CYP 2C9) was 13.02±7.14% and the “residuary concentration of ammoxetine, Mean±SD” value (CYP 2C9) was 5.96±0.49.
